Counter-ions that a name gives are not always drawn. Each block holds one molecule with its values, some of them ahead of it.
Columns and labels:
Test in all cases: MIC, NCCLS broth microdilution
Type in all cases: cell-based
[1] = system: Klebsiella pneumoniae CF104; details: for MIC of antibiotic at fixed inhibitor concentration (4 mg/L): MIC of antibiotic compound 1 with the labelled bridged monobactam of formula II and clavulanate, 4 mg/L each
Acinetobacter sp. J2 = details: for MIC of antibiotic at fixed inhibitor concentration (4 mg/L): Acinetobacter sp. J2, MIC of antibiotic compound 1 with the labelled bridged monobactam of formula II and clavulanate, 4 mg/L each
Enterobacter cloacae P99 = details: for MIC of antibiotic at fixed inhibitor concentration (4 mg/L): MIC of antibiotic compound 1 with the labelled bridged monobactam of formula II and clavulanate, 4 mg/L each
[2] = system: Stenotrophomonas malthophilia 1AC736; details: for MIC of antibiotic at fixed inhibitor concentration (4 mg/L): Stenotrophomonas malthophilia 1AC736, MIC of antibiotic compound 1 with the labelled bridged monobactam of formula II and clavulanate, 4 mg/L each
Serratia marcescens S6 = details: for MIC of antibiotic at fixed inhibitor concentration (4 mg/L): MIC of antibiotic compound 1 with the labelled bridged monobactam of formula II and clavulanate, 4 mg/L each
[3] = system: Pseudomonas aeruginosa 1973E; details: for MIC of antibiotic at fixed inhibitor concentration (4 mg/L): MIC of antibiotic compound 1 with the labelled bridged monobactam of formula II and clavulanate, 4 mg/L each
Summary of the method: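 Broth microdilution following NCCLS M7-A5, with final DMSO ≤1%. Plates were incubated overnight at 30° C. or 37° C. and growth was read by eye; MIC is the lowest concentration giving complete inhibition of visible growth. In combination tests the formula I compound was serially diluted while partner compounds were held at 4 μg/mL each.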

[4] = system: Pseudomonas aeruginosa MK1184; details: for MIC of antibiotic at fixed inhibitor concentration (4 mg/L): MIC of antibiotic compound 1 with the labelled bridged monobactam of formula II and clavulanate, 4 mg/L each

Structure (SMILES): Cc1ccc(C(N)=O)c[n+]1CC(=O)N1CC[C@@H]2[C@H]1C(=O)N2S(=O)(=O)[O-] [Compound 111, (1S,5R)-2-[2-(3-carbamoyl-6-methylpyridinium)acetyl]-7-oxo-2,6-diazabicyclo[3.2.0]heptane-6-sulfonate, inner salt]
MIC of antibiotic at fixed inhibitor concentration (4 mg/L) [1]: <0.06 µg/mL
MIC of antibiotic at fixed inhibitor concentration (4 mg/L) (Acinetobacter sp. J2): 4 µg/mL
MIC of antibiotic at fixed inhibitor concentration (4 mg/L) (Enterobacter cloacae P99): 4 µg/mL
MIC of antibiotic at fixed inhibitor concentration (4 mg/L) [2]: 0.125 µg/mL
MIC of antibiotic at fixed inhibitor concentration (4 mg/L) (Serratia marcescens S6): 0.25 µg/mL
MIC of antibiotic at fixed inhibitor concentration (4 mg/L) [3]: 4 µg/mL
MIC of antibiotic at fixed inhibitor concentration (4 mg/L) [4]: 8 µg/mL

Structure (SMILES): O=C(C[n+]1cccc(C(F)(F)F)c1)N1CC[C@@H]2[C@H]1C(=O)N2S(=O)(=O)[O-] [Compound 120, (1S,5R)-7-oxo-2-{2-[3-(trifluoromethyl)pyridinium]acetyl}-2,6-diazabicyclo[3.2.0]heptane-6-sulfonate, inner salt]
MIC of antibiotic at fixed inhibitor concentration (4 mg/L) [1]: 0.25 µg/mL
MIC of antibiotic at fixed inhibitor concentration (4 mg/L) (Acinetobacter sp. J2): 32 µg/mL
MIC of antibiotic at fixed inhibitor concentration (4 mg/L) (Enterobacter cloacae P99): 32 µg/mL
MIC of antibiotic at fixed inhibitor concentration (4 mg/L) [2]: 0.125 µg/mL
MIC of antibiotic at fixed inhibitor concentration (4 mg/L) (Serratia marcescens S6): 0.25 µg/mL
MIC of antibiotic at fixed inhibitor concentration (4 mg/L) [3]: 8 µg/mL
MIC of antibiotic at fixed inhibitor concentration (4 mg/L) [4]: 16 µg/mL

Structure (SMILES): O=C(N[C@H]1CCNC1)c1ccc[n+](CC(=O)N2CC[C@@H]3[C@H]2C(=O)N3S(=O)(=O)[O-])c1 [Compound 122, 2-(2-{3-[N-((3S)pyrrolidin-3-yl)carbamoyl]pyridinium}acetyl)(1S,5R)-7-oxo-2,6-diazabicyclo[3.2.0]heptane-6-sulfonate, inner salt]
MIC of antibiotic at fixed inhibitor concentration (4 mg/L) [1]: 0.125 µg/mL
MIC of antibiotic at fixed inhibitor concentration (4 mg/L) (Acinetobacter sp. J2): >32 µg/mL
MIC of antibiotic at fixed inhibitor concentration (4 mg/L) (Enterobacter cloacae P99): 16 µg/mL
MIC of antibiotic at fixed inhibitor concentration (4 mg/L) [2]: 0.125 µg/mL
MIC of antibiotic at fixed inhibitor concentration (4 mg/L) (Serratia marcescens S6): 0.25 µg/mL
MIC of antibiotic at fixed inhibitor concentration (4 mg/L) [3]: 4 µg/mL
MIC of antibiotic at fixed inhibitor concentration (4 mg/L) [4]: 16 µg/mL

Structure (SMILES): O=C(C[n+]1cccc(-c2ccccc2)c1)N1CC[C@@H]2[C@H]1C(=O)N2S(=O)(=O)[O-] [Compound 124, (1S,5R)-7-oxo-2-[2-(3-phenylpyridinium)acetyl]-2,6-diazabicyclo[3.2.0]heptane-6-sulfonate, inner salt]
MIC of antibiotic at fixed inhibitor concentration (4 mg/L) [1]: 0.125 µg/mL
MIC of antibiotic at fixed inhibitor concentration (4 mg/L) (Acinetobacter sp. J2): >32 µg/mL
MIC of antibiotic at fixed inhibitor concentration (4 mg/L) (Enterobacter cloacae P99): 32 µg/mL
MIC of antibiotic at fixed inhibitor concentration (4 mg/L) [2]: 0.125 µg/mL
MIC of antibiotic at fixed inhibitor concentration (4 mg/L) (Serratia marcescens S6): 0.25 µg/mL
MIC of antibiotic at fixed inhibitor concentration (4 mg/L) [3]: 8 µg/mL
MIC of antibiotic at fixed inhibitor concentration (4 mg/L) [4]: 32 µg/mL

Now from value to molecule:

MIC of antibiotic at fixed inhibitor concentration (4 mg/L) [1]: 1 µg/mL
MIC of antibiotic at fixed inhibitor concentration (4 mg/L) (Acinetobacter sp. J2): 16 µg/mL
MIC of antibiotic at fixed inhibitor concentration (4 mg/L) (Enterobacter cloacae P99): >32 µg/mL
MIC of antibiotic at fixed inhibitor concentration (4 mg/L) [2]: 0.125 µg/mL
MIC of antibiotic at fixed inhibitor concentration (4 mg/L) (Serratia marcescens S6): 0.25 µg/mL
MIC of antibiotic at fixed inhibitor concentration (4 mg/L) [3]: 4 µg/mL
MIC of antibiotic at fixed inhibitor concentration (4 mg/L) [4]: >32 µg/mL
Structure (SMILES): O=C(Nc1cccc(CO)c1)N1CC[C@@H]2[C@H]1C(=O)N2S(=O)(=O)[O-].[Na+] [Compound 321, Sodium(1S,5R)-2-{N-[3-(hydroxymethyl)phenyl]carbamoyl}-7-oxo-2,6-diazabicyclo[3.2.0]heptane-6-sulfonate]

MIC of antibiotic at fixed inhibitor concentration (4 mg/L) [1]: 0.5 µg/mL
MIC of antibiotic at fixed inhibitor concentration (4 mg/L) (Acinetobacter sp. J2): 4 µg/mL
MIC of antibiotic at fixed inhibitor concentration (4 mg/L) (Enterobacter cloacae P99): 16 µg/mL
MIC of antibiotic at fixed inhibitor concentration (4 mg/L) [2]: 0.125 µg/mL
MIC of antibiotic at fixed inhibitor concentration (4 mg/L) (Serratia marcescens S6): 0.125 µg/mL
MIC of antibiotic at fixed inhibitor concentration (4 mg/L) [3]: 8 µg/mL
MIC of antibiotic at fixed inhibitor concentration (4 mg/L) [4]: >32 µg/mL
Structure (SMILES): Nc1nc(CC(=O)N2CC[C@@H]3[C@H]2C(=O)N3S(=O)(=O)O)cs1 [Compound 401]

MIC of antibiotic ([1]; antibiotic alone, no inhibitor): >32 µg/mL
MIC of antibiotic at fixed inhibitor concentration of 4 mg/L ([1]; with 102 and clavulanate): 2 µg/mL
MIC of antibiotic at fixed inhibitor concentration of 4 mg/L ([1]; with 324 and clavulanate): 4 µg/mL
MIC of antibiotic (Acinetobacter sp. J2; Acinetobacter baumannii J2, antibiotic alone, no inhibitor): >32 µg/mL
MIC of antibiotic at fixed inhibitor concentration of 4 mg/L (Acinetobacter sp. J2; Acinetobacter baumannii J2, with 102 and clavulanate): >32 µg/mL
MIC of antibiotic at fixed inhibitor concentration of 4 mg/L (Acinetobacter sp. J2; Acinetobacter baumannii J2, with 324 and clavulanate): >32 µg/mL
MIC of antibiotic (Enterobacter cloacae P99; antibiotic alone, no inhibitor): >32 µg/mL
MIC of antibiotic at fixed inhibitor concentration of 4 mg/L (Enterobacter cloacae P99; with 102 and clavulanate): 32 µg/mL
MIC of antibiotic at fixed inhibitor concentration of 4 mg/L (Enterobacter cloacae P99; with 324 and clavulanate): 16 µg/mL
MIC of antibiotic ([2]; Stenotrophomonas maltophilia 1AC736, antibiotic alone, no inhibitor): 4 µg/mL
MIC of antibiotic at fixed inhibitor concentration of 4 mg/L ([2]; Stenotrophomonas maltophilia 1AC736, with 102 and clavulanate): 4 µg/mL
MIC of antibiotic at fixed inhibitor concentration of 4 mg/L ([2]; Stenotrophomonas maltophilia 1AC736, with 324 and clavulanate): 2 µg/mL
MIC of antibiotic (Serratia marcescens S6; antibiotic alone, no inhibitor): 8 µg/mL
MIC of antibiotic at fixed inhibitor concentration of 4 mg/L (Serratia marcescens S6; with 102 and clavulanate): 2 µg/mL
MIC of antibiotic at fixed inhibitor concentration of 4 mg/L (Serratia marcescens S6; with 324 and clavulanate): 2 µg/mL
MIC of antibiotic ([3]; antibiotic alone, no inhibitor): 8 µg/mL
MIC of antibiotic at fixed inhibitor concentration of 4 mg/L ([3]; with 102 and clavulanate): 4 µg/mL
MIC of antibiotic at fixed inhibitor concentration of 4 mg/L ([3]; with 324 and clavulanate): 8 µg/mL
MIC of antibiotic ([4]; antibiotic alone, no inhibitor): 4 µg/mL
MIC of antibiotic at fixed inhibitor concentration of 4 mg/L ([4]; with 102 and clavulanate): 2 µg/mL
MIC of antibiotic at fixed inhibitor concentration of 4 mg/L ([4]; with 324 and clavulanate): 2 µg/mL
Structure (SMILES): NC(=O)OC[C@@H]1[C@H](NC(=O)/C(=N\OCc2cc(=O)c(O)cn2O)c2nsc(N)n2)C(=O)N1OS(=O)(=O)O [Compound 48, ((2S,3S)-3-{(2Z)-2-(5-amino(1,2,4-thiadiazol-3-yl))-3-[(1,5-dihydroxy-4-oxo(2-hydropyridyl))methoxy]-3-azaprop-2-enoylamino}-1-(hydroxysulfonyloxy)-4-oxoazetidin-2-yl)methyl aminooate]

Source: US20160122320A1, “USEFUL COMBINATIONS OF MONOBACTAM ANTIBIOTICS WITH BETA-LACTAMASE INHIBITORS” (Basilea Pharmaceutica AG, priority 2005, published 2016)
